pIC50: −log10 of the molar value.
Tests used:
RL95-2 cells = experiment: Inhibition of RL95-2 cell proliferation (CellTiter-Glo); assay type: cell-based; conditions: Homo sapiens; RL95-2 cells (MSI-H), 120 hours
Method in brief: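 Proliferation IC50 derived by nonlinear regression of % inhibition against log concentration, with 0.1% DMSO wells as reference. CellTiter-Glo luminescence was read after 120 h of compound exposure (10000 nM down to 1.52 nM final) at 37 °C. MSI-H RL95-2 cells seeded at 500/well in DMEM/F12 with 10% FBS the day before.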

[1] = Metabolic stability in dog liver microsomes; assay type: in vitro ADME; conditions: dog liver microsomes 0.5 mg mL^-1, NADPH 1 mM, 0-60 min; read-out: Liver microsomal stability t1/2 (min) Dog
Experimental: The purpose of this study was to investigate the metabolic stability of the compounds of the present disclosure in human and dog liver microsomes.
The compounds were co-incubated with human (or dog) liver microsomes, and the reaction was initiated by adding coenzyme NADPH (1 mM). At 0, 5, 15, 30, and 60 minutes, 60 µL of incubation solution was removed, and 180 µL of acetonitrile containing internal standard (clopidogrel) was added to quench the reaction, the mixture was shaken for 10 seconds, centrifuged at 10000 rpm for 10 minutes, and the supernatant was taken for analysis by LC-MS/MS. The in vitro intrinsic clearance was calculated based on the elimination half-life of the test compound in the incubation system. Midazolam was used as an internal reference compound, with two parallel incubations for each. Incubation conditions are summarized in Table 6 below: Table 6 Incubation conditions for the example compounds of the present disclosure
The ratio of the peak area of analyte to internal standard (Aanalyte/AIS) was obtained from the instrument, and the remaining percentage (%Control) was calculated from the ratio of Aanalyte/AIS in non-zero time point samples to zero time samples. Ln (%Control) was plotted against incubation time and linearly fitted. The test compound clearance constant (k, min^-1) and clearance half-life (T1/2, min) were calculated using the following equations. k = −slope [formula] T1/2 = 0.693/k. [formula]

[2] = Caco-2 bidirectional permeability and efflux ratio; assay type: in vitro ADME; conditions: human, Caco-2, 10 µM, 120 minutes
Experimental: (§1) The bidirectional permeability and efflux ratio of the example compounds and control compound were determined in a Caco-2 monolayer cell model.
(§2) Caco-2 cells (cultured at Shanghai Medicilon Inc.) were recovered in the experiment. After the cells were in good condition, they were digested, and the cell density was adjusted (1 × 10^5 cells/cm^2). Caco-2 cells were seeded into Transwell chambers and placed in 24-well plates for cultivation. After continuous cultivation for about 21 days, TEER values were measured one day before the experiment to ensure formation of a confluent cell monolayer for transport experiments (TEER > 200 Ω·cm^2). Test compounds were diluted from 10 mM stock solutions to 10 µM concentration using transport buffer (HBSS containing BSA) (metoprolol and atenolol were set as positive compounds). For efflux determination, 0.6 mL of compound dilution solution was added to the outer well (side B), and 0.4 mL of blank transport buffer was added to the Transwell chamber. For absorption determination, 0.4 mL of transport buffer containing compound was added to the Transwell chamber, and 0.6 mL of blank transport buffer was added to the outer side. After setup, the 24-well plates were cultivated at 37 °C and 5% CO2 with 95% relative humidity for 120 minutes, and permeability of test compounds from A to B direction or B to A direction was measured, respectively, with two duplicate wells set for each direction. Liquid in Transwell chambers and 24-well plates was collected separately, 60 µL each, and 180 µL of acetonitrile (containing internal standard) was added, vortexed for 1 min, then centrifuged at 4 °C, 10000 rpm for 10 min. The supernatant was taken, filtered through a 0.22 µm membrane, and placed in vials for testing. The content of the compounds in each Transwell chamber and 24-well plate was determined by liquid chromatography-tandem mass spectrometry (LC-MS/MS). Table 4 Permeability data of compounds of the present disclosure

[3] = tested on: Caco-2 monolayer cell model; experiment: Caco-2 bidirectional permeability and efflux ratio; assay type: in vitro ADME; conditions: Caco-2, conclusion
Experimental: as §1, §2

CCc1c(N2CCN(C(=O)c3ncnc(C)c3O)CC2)c(=O)n2nc(-c3cc4ccccc4s3)nc2n1CC(=O)Nc1ccc(C(F)(F)F)cc1Cl [Example 80, 2-(2-(benzo[b]thiophen-2-yl)-5-ethyl-6-(4-(5-hydroxy-6-methylpyrimidine-4-carbonyl)piperazin-1-yl)-7-oxo-[1,2,4]triazolo[1,5-a]pyrimidin-4(7H)-yl)-N-(2-chloro-4-(trifluoromethyl)phenyl)acet amide] showed a pIC50 (RL95-2 cells) of 7.00 to 9.00, a half-life [1] of 637 min and an efflux ratio at 120 min, 10 µM ([2]; read-out: Efflux ratio Papp(B-A)/ Papp(A-B)) of 0.62. For the same molecule, the Papp A→B at 120 min, 10 µM ([2]; A to B) was 3.67 ×10⁻⁶ cm/s, the Papp B→A at 120 min, 10 µM ([2]; B to A) was 2.29 ×10⁻⁶ cm/s and the “efflux (in words)” value [3] was “no significant efflux”. For the same molecule, the “permeability (in words)” value [3] was “moderate permeability”.

From patent EP4800015A1, “AZABICYCLO DERIVATIVE AND PREPARATION METHOD THEREFOR, AND USE” (Zhejiang Hisun Pharmaceutical Co., Ltd., priority 2023, dated 2025)
